Patent publication US20250302728A1, “FRAGRANCE COMPOSITIONS AND PRODUCTS CONVEYING A POSITIVE MOOD” (SYMRISE AG, priority 2022, published 2025)

Tested on: subject's mood
Test: Implicit response test (IRT)
Assay type: in vivo, human
Design: scale not given here
Settings: ingredients of the fragrance composition conveying a fresh mood (Table 1)
Protocol: (§1) 1. Sensorial and Emotional Evaluation of Fragrance Raw Materials Each fragrance was evaluated by 30 subjects. At each appointment, the subject discovered fragrances in one sequence of four fragrances and two sequences of three fragrances separated by a 10-minute break.
During those appointments, the subjects smelt the fragrances in a random way.
(§2) For each fragrance, the subject discovered each fragrance on a card strip for 10 seconds. Between each product, a rest-period of 2 minutes was carried out during which the subject smelt their own body odour by smelling their wrist and the subject drank a little bit of water as well.
The evaluation is carried out in standardized lighting conditions and under a monitored temperature (temperature 21±1.5° C.).
Implicit response tests (IRTs) are a family of tests and assess the subjects' immediate, “gut instinct” responses the fragrance raw materials.
The alleged underlying processes are based on how neurosciences describe the way our brain processes information. Indeed, our brain processes information through two systems: System 2, which is slow and processes conscious information, and System 1, which is fast and processes non-conscious information.
The IRT tests are performed at a computer, where the following words appear on the computer screen: • Energizing • Relaxing • Attractive • Sensual • Joyful • Protective • Confident • Fresh • Well-being
The subject has to click on the screen with the computer mouse to indicate their accordance or not of the word with the tested fragrance. In addition, the times to click the button are recorded.

Structure (SMILES)	IRT Score
C=CC(C)(O)CCC=C(C)CC (mixture of isomers) [ETHYL LINALOOL, (6E)-3,7-dimethylnona-1,6-dien-3-ol]	1682
CC(C=O)Cc1ccc2c(c1)OCO2 (stereo not drawn) [3-(1,3-benzodioxol-5-yl)-2-methyl-propanal]	742
COC(OC)C(C)(C)CC=C(C)C [AMAROCIT ®, 6,6-Dimethoxy-2,5,5-trimethylhex-2-ene]	1763
Cc1ccc2c(c1)OCC(=O)CO2 [CALONE, 7-methyl-1,5-benzodioxepin-3-one]	2830
CC(C)=CCC/C(C)=C/C=O [CITRAL FF, (2E)-3,7-Dimethylocta-2,6-dienal]	2393
CC(C=O)Cc1ccc(C(C)C)cc1 (stereo not drawn) [CYCLAMEN ALDEHYDE, 3-(4-isopropylphenyl)-2-methyl-propanal]	1005

Same assay, conditions: ingredients of the fragrance composition conveying an attractive mood (Table 2)

Structure (SMILES)	IRT Score
C=CC(C)(O)CCC=C(C)CC (mixture of isomers) [ETHYL LINALOOL, (6E)-3,7-dimethylnona-1,6-dien-3-ol]	565
CC(C)(C)c1ccc(CCC=O)cc1 [BOURGEONAL, 3-(4-tert-butylphenyl)propanal]	1045
O=c1ccc2ccccc2o1 [COUMARIN, chromen-2-one]	1347
C=CC(C)CCCC(C)(C)O (stereo not drawn) [DIHYDRO MYRCENOL, 2,6-dimethyloct-7-en-2-ol]	1599
O=C1CCCCCCCCCCCC(=O)OCCO1 [ETHYLENE BRASSYLATE, 1,4-dioxacycloheptadecane-5,17-dione]	1177
CC(CC=O)CCCC(C)(C)O (stereo not drawn) [HYDROXY CITRONELLAL, 7-hydroxy-3,7-dimethyl-octanal]	1283
O=C1CCCCCCCCCCCCCCO1 [MACROLIDE ® SUPRA, Pentadecan-15-olide]	1944

Tested on: subject's mood
Test: Actimood scoring (correlation of EmoChar and IRT values)
Assay type: in vivo, human
Settings: attractive mood (Table 11); scale 0 (low impact) to 3 (high impact)
Protocol: as §1, §2
Emochar™ is a system of emotional characterization, scoring 7 main emotional dimensions from 0 to 10: • Stimulation: focus, attention, and awakening. • Relaxation: serenity, relaxation and appeasing. • Sensual: arousing, sexy and erotic. • Pleasure: liking, “gourmand” and satisfaction. • Tenderness: gentleness and softness. • Joy: excitement, fun and enthusiasm. • Self-esteem: confidence and assurance
Actimood scores are based on a correlation of EmoChar™ and IRT values. The scores are classified on a scale from 0 (low impact on subject's mood) to 3 (high impact on subject's mood).
Each score is obtained according to an algorithm, mixing verbal and non-verbal responses of volunteers to a specific product, or stimulus in a given context. The algorithm was developed from extensive field data, and in accordance with scientific literature and validated biobehavioral patterns associated to various emotional states.

Structure (SMILES)	Actimood score
C=CC(C)(O)CCC=C(C)CC (mixture of isomers) [ETHYL LINALOOL, (6E)-3,7-dimethylnona-1,6-dien-3-ol]	2
CC(C)(C)c1ccc(CCC=O)cc1 [BOURGEONAL, 3-(4-tert-butylphenyl)propanal]	3
O=c1ccc2ccccc2o1 [COUMARIN, chromen-2-one]	3
C=CC(C)CCCC(C)(C)O (stereo not drawn) [DIHYDRO MYRCENOL, 2,6-dimethyloct-7-en-2-ol]	3
O=C1CCCCCCCCCCCC(=O)OCCO1 [ETHYLENE BRASSYLATE, 1,4-dioxacycloheptadecane-5,17-dione]	3
CC(CC=O)CCCC(C)(C)O (stereo not drawn) [HYDROXY CITRONELLAL, 7-hydroxy-3,7-dimethyl-octanal]	3
O=C1CCCCCCCCCCCCCCO1 [MACROLIDE ® SUPRA, Pentadecan-15-olide]	3

Same assay, conditions: energizing mood (Table 7); scale 0 (low impact) to 3 (high impact)

Structure (SMILES)	Actimood score
C=CC(C)(O)CCC=C(C)CC (mixture of isomers) [ETHYL LINALOOL, (6E)-3,7-dimethylnona-1,6-dien-3-ol]	1
COC(OC)C(C)(C)CC=C(C)C [AMAROCIT ®, 6,6-Dimethoxy-2,5,5-trimethylhex-2-ene]	3
Cc1ccc2c(c1)OCC(=O)CO2 [CALONE, 7-methyl-1,5-benzodioxepin-3-one]	3
CC(C)=CCC/C(C)=C/C=O [CITRAL FF, (2E)-3,7-Dimethylocta-2,6-dienal]	3
C=CC(C)CCCC(C)(C)O (stereo not drawn) [DIHYDRO MYRCENOL, 2,6-dimethyloct-7-en-2-ol]	3
CCCCCCOC(C)=O [HEXYL ACETATE, hexyl acetate]	1
CC1=CC(C)C(C=O)CC1 (stereo not drawn) [VERTOCITRAL, 2,4-Dimethylcyclohex-3-ene-1-carbaldehyde]	1

Same assay, conditions: fresh mood (Table 12); scale 0 (low impact) to 3 (high impact)

Structure (SMILES)	Actimood score
C=CC(C)(O)CCC=C(C)CC (mixture of isomers) [ETHYL LINALOOL, (6E)-3,7-dimethylnona-1,6-dien-3-ol]	3
CCCCC[C@@H]1C(=O)CC[C@H]1CC(=O)OC (racemic) [HEDIONE, methyl-2-[RAC-(1S,2S)-3-oxo-2-pentyl-cyclopentyl]acetate]	2
CC(C)C1CC=C(CCC=O)CC1 (single isomer, unassigned; (+)) [LILYBELLE ®, (+)-3-(4-Isopropylcyclohexen-1-yl)propanal]	3
COC(OC)C(C)(C)CC=C(C)C [AMAROCIT ®, 6,6-Dimethoxy-2,5,5-trimethylhex-2-ene]	3
Cc1ccc2c(c1)OCC(=O)CO2 [CALONE, 7-methyl-1,5-benzodioxepin-3-one]	3
CC(C)=CCC/C(C)=C/C=O [CITRAL FF, (2E)-3,7-Dimethylocta-2,6-dienal]	3
CC(C=O)Cc1ccc(C(C)C)cc1 (stereo not drawn) [CYCLAMEN ALDEHYDE, 3-(4-isopropylphenyl)-2-methyl-propanal]	3
CCc1ccc(CC(C)(C)C=O)cc1 [FLORALOZONE, 3-(4-ethylphenyl)-2,2-dimethylpropanal]	3

Same assay, conditions: joyful mood (Table 6); scale 0 (low impact) to 3 (high impact)

Structure (SMILES)	Actimood score
C=CC(C)(O)CCC=C(C)CC (mixture of isomers) [ETHYL LINALOOL, (6E)-3,7-dimethylnona-1,6-dien-3-ol]	2
CCCCC[C@@H]1C(=O)CC[C@H]1CC(=O)OC (racemic) [HEDIONE, methyl-2-[RAC-(1S,2S)-3-oxo-2-pentyl-cyclopentyl]acetate]	0
CCCCCCC1OC(=O)CC1C (stereo not drawn) [APRIFLOREN ®, 5-Hexyldihydro-4-methylfuran-2(3H)-one]	2
Cc1ccc2c(c1)OCC(=O)CO2 [CALONE, 7-methyl-1,5-benzodioxepin-3-one]	3
COc1ccc(CCC(C)=O)cc1 [FRAMBINON ®, Methoxyphenylbutanone]	3
CCCCCCOC(C)=O [HEXYL ACETATE, hexyl acetate]	2
CC(=O)/C=C/C1=C(C)CCCC1(C)C [IONONE BETA, (E)-4-(2,6,6-trimethylcyclohexen-1-yl)but-3-en-2-one]	3
CC(=O)C1(C)CC2=C(CCCC2(C)C)CC1C (stereo not drawn) [ISO E SUPER, 1-[2,3,8,8-tetramethyl-1,3,4,5,6,7-hexanhydronaphthalen-2-yl]ethanone]	2

Same assay, conditions: protective mood (Table 5); scale 0 (low impact) to 3 (high impact)

Structure (SMILES)	Actimood score
O=C1CCCCCCCCCCCCCCO1 [MACROLIDE ® SUPRA, Pentadecan-15-olide]	2

Same assay, conditions: relaxing and sleep enhancing mood (Composition 1, Table 3); scale 0 (low impact on subject's mood) to 3 (high impact)

Structure (SMILES)	Actimood score
CCCCC[C@@H]1C(=O)CC[C@H]1CC(=O)OC (racemic) [HEDIONE, methyl-2-[RAC-(1S,2S)-3-oxo-2-pentyl-cyclopentyl]acetate]	2
O=C1CCCCCCCCCCCC(=O)OCCO1 [ETHYLENE BRASSYLATE, 1,4-dioxacycloheptadecane-5,17-dione]	2

Same assay, conditions: relaxing mood (Composition 2, Table 4); scale 0 (low impact) to 3 (high impact)

Structure (SMILES)	Actimood score
CC(C)(C)c1ccc(CCC=O)cc1 [BOURGEONAL, 3-(4-tert-butylphenyl)propanal]	3
O=c1ccc2ccccc2o1 [COUMARIN, chromen-2-one]	3
O=C1CCCCCCCCCCCCCCO1 [MACROLIDE ® SUPRA, Pentadecan-15-olide]	3

Same assay, conditions: self-confident mood (Table 9); scale 0 (low impact) to 3 (high impact)

Structure (SMILES)	Actimood score
CCCCCCC1OC(=O)CC1C (stereo not drawn) [APRIFLOREN ®, 5-Hexyldihydro-4-methylfuran-2(3H)-one]	2
CC(C)(C)c1ccc(CCC=O)cc1 [BOURGEONAL, 3-(4-tert-butylphenyl)propanal]	2
O=C1CCCCCCCCCCCC(=O)OCCO1 [ETHYLENE BRASSYLATE, 1,4-dioxacycloheptadecane-5,17-dione]	2
CC(CC=O)CCCC(C)(C)O (stereo not drawn) [HYDROXY CITRONELLAL, 7-hydroxy-3,7-dimethyl-octanal]	1

Same assay, conditions: sensual mood (Table 8); scale 0 (low impact) to 3 (high impact)

Structure (SMILES)	Actimood score
C=CC(C)CCCC(C)(C)O (stereo not drawn) [DIHYDRO MYRCENOL, 2,6-dimethyloct-7-en-2-ol]	3
O=C1CCCCCCCCCCCC(=O)OCCO1 [ETHYLENE BRASSYLATE, 1,4-dioxacycloheptadecane-5,17-dione]	3
CC(=O)C1(C)CC2=C(CCCC2(C)C)CC1C (stereo not drawn) [ISO E SUPER, 1-[2,3,8,8-tetramethyl-1,3,4,5,6,7-hexanhydronaphthalen-2-yl]ethanone]	2

Same assay, conditions: well-being mood (Table 10); scale 0 (low impact) to 3 (high impact)

Structure (SMILES)	Actimood score
CCCCC[C@@H]1C(=O)CC[C@H]1CC(=O)OC (racemic) [HEDIONE, methyl-2-[RAC-(1S,2S)-3-oxo-2-pentyl-cyclopentyl]acetate]	0
CC(C)C1CC=C(CCC=O)CC1 (single isomer, unassigned; (+)) [LILYBELLE ®, (+)-3-(4-Isopropylcyclohexen-1-yl)propanal]	0
Cc1ccc2c(c1)OCC(=O)CO2 [CALONE, 7-methyl-1,5-benzodioxepin-3-one]	3
CC(=O)/C=C/C1=C(C)CCCC1(C)C [IONONE BETA, (E)-4-(2,6,6-trimethylcyclohexen-1-yl)but-3-en-2-one]	3
CC(=O)C1(C)CC2=C(CCCC2(C)C)CC1C (stereo not drawn) [ISO E SUPER, 1-[2,3,8,8-tetramethyl-1,3,4,5,6,7-hexanhydronaphthalen-2-yl]ethanone]	2
O=C1CCCCCCCCCCCCCCO1 [MACROLIDE ® SUPRA, Pentadecan-15-olide]	2
CC1=CC(C)C(C=O)CC1 (stereo not drawn) [VERTOCITRAL, 2,4-Dimethylcyclohex-3-ene-1-carbaldehyde]	0
